# Where “and” joins values, the source holds several entries; their conditions need not be identical. Equal entries are not always repeated.
# Legend:
# Balb/c mice, 6.11 Gy TBI = test: Structural analog / calorie effect study: EC-18, PLH, olive oil in 6.11 Gy ARS model; assay type: in vivo, mouse; settings: 250 mg/kg daily
# Procedure: Similarly, a structural analog efficacy study was conducted to identify the optimally functional molecule in the ARS murine model. The study was performed with the structural analog in which the acetyl group in EC-18 is replaced with a hydroxyl group (yielding palmitic linoleic hydroxyl glycerol, PLH) in 20 Balb/c mice (10 female and 10 male) per group. Mice were irradiated with TBI of 6.11Gy at day 0 and 250 mg/kg of EC-18 or PLH were given daily in-life.
# The purpose of this study was to assess whether extra calories of EC-18 contribute to the enhanced survival in mice after exposure to a whole-body sublethal dose of γ-radiation. The study was performed with the structural analog in which the acetyl group in EC-18 is replaced with a hydroxyl group (yielding PLH) in a total of 100 BALB/c mice ([…]; 20 animals per study group) aged at 11 weeks. Mice were irradiated with TBI of 6.11Gy at day 0 and the same dosage (250 mg/kg) of EC-18, PLH, or olive oil (vehicle control) were given daily in-life.
# [1] = Whole blood and lymphatic radioactivity in rats after single oral [14C]EC-18 100 mg/kg; assay type: in vivo, rat; settings: 100 mg/kg oral, n=3; for Tmax: 100 mg/kg
# Procedure: Male SD rats in fasted condition were administered a single dose of [^14C]EC-18 (oral dose of 100 mg/kg; vehicle: olive oil), and the radioactive concentration of the EC-18 was measured in whole blood samples at 0.5, 1, 2, 3, 4, 6, and 8 hrs after its administration. In parallel, male rats with a cannula inserted into the intestinal tract were administered a single dose of [^14C]EC-18 (oral dose of 100 mg/kg; vehicle: olive oil) and the concentration of EC-18-related radioactivity was measured in lymphatic fluid collected in conscious rats at 0.5, 1, 2, 3, 4, 6, and 8 hrs after its administration (FIG. 60). Then, the values of PK parameters were calculated using the quantitative data from whole blood and lymphatic fluid samples (Table 20). Following a single oral administration of [14C]EC-18, EC-18 concentration in the lymphatic fluid of rats was 10 to 53 times higher than that in whole blood (FIG. 60).
# [2] = Plasma radioactivity in rats after single oral or IV [14C]EC-18; assay type: in vivo, rat
# Procedure: Male SD rats in the fed state were administered a single oral dose of 25, 50, or 100 mg/kg (vehicle: olive oil) or a single IV injection of 10 mg/kg of [^14C]EC-18 (EC-18 with radioactive isotope ^14C attached). Subsequently, the PK parameters were assessed. The concentration of radioactivity in rat plasma was measured by liquid scintillation counting (LSC) method after adding a scintillator (Clear-Sol I, Nacalai Tesque, Inc).
# [3] = Whole-body autoradiography of rats after single oral [14C]EC-18; assay type: in vivo, rat; settings: 200 mg/kg oral, fasted
# Procedure: Male albino rats in fasted conditions were administered a single dose of [^14C]EC-18 (oral dose of 200 mg/kg, vehicle: olive oil). The distribution and levels of radioactivity in the body were observed by whole-body autoradiography performed at 0.25, 1, 8, and 24 hrs after [^14C]EC-18 administration.
# [4] = Plasma and lymphatic radioactivity after single oral [14C]EC-18 50 mg/kg in cannulated rats; assay type: in vivo, rat; settings: 50 mg/kg oral; for Radioactive Concentration in Plasma: n=3
# Procedure: After inserting a cannula into the intestinal tract of male SD rats, the rats in fed condition were given a single dose of [^14C]EC-18 (oral dose of 50 mg/kg; vehicle: olive oil), and samples were collected after 0.5, 1, 2, 4, 6, and 8 hrs of administration. In parallel, lymphatic fluid samples were collected from conscious rats up to 8 hrs after administration. The radioactive concentrations in rat plasma and lymphatic fluid were measured by LSC after adding a scintillator, and the quantified data are shown in Table 19.
# [5] = Pathway of excretion in rats after single oral [14C]EC-18; assay type: in vivo, rat; settings: 50 mg/kg oral
# Procedure: To assess the routes of EC-18 excretion, male rats were administered a single dose of [^14C]EC-18 (oral dose of 50 mg/kg), after which, radioactive concentrations were measured in urine, feces, and exhaled air in the chamber of the animals for 168 hrs, and in the body after the autopsy.
# [6] = Oral 25 mg/kg, plasma, fed, n=3
# [7] = Oral 50 mg/kg, plasma, fed, n=3
# [8] = Oral 100 mg/kg, plasma, fed, n=3
structure (smiles),measurement,setting,value
"CCCCC/C=C\C/C=C\CCCCCCCC(=O)OC(CO)COC(=O)CCCCCCCCCCCCCCC (stereo not drawn) [PLH, palmitic linoleic hydroxyl glycerol, reference compound]",No. of mice that survived/total,"Balb/c mice, 6.11 Gy TBI",8/20
same,Survival,"Balb/c mice, 6.11 Gy TBI",40%
same,"Survival time of decedents, Mean ± SEM","Balb/c mice, 6.11 Gy TBI",18.8 ± 1.6 days
same,"Survival time of decedents, Median","Balb/c mice, 6.11 Gy TBI",18 days
same,body weight loss induced by irradiation,"Balb/c mice, 6.11 Gy TBI",aggravated body weight loss
same,survival compared to control group,"Balb/c mice, 6.11 Gy TBI; 250 mg/kg",no statistically significant difference
CCCCC/C=C\C/C=C\CCCCCCCC(=O)OC(COC(C)=O)COC(=O)CCCCCCCCCCCCCCC (stereo not drawn) [[^14C]EC-18],AUC0-inf,[1]; Lymphatic Fluid,53900 ± 39100 μg eq · hr/mL
same,AUC0-last,[1]; Lymphatic Fluid,20400 ± 600 μg eq · hr/mL
same,Cmax,[1]; Lymphatic Fluid,1210 ± 200 µg/mL
same,t1/2,[1]; Lymphatic Fluid,29.7 ± 28.1 h
same,Tmax,[1]; Lymphatic Fluid,7.0 ± 2.0 h
same,AUC0-inf,"[1]; Whole Blood, fasted",819 ± 130 μg eq · hr/mL
same,AUC0-last,"[1]; Whole Blood, fasted",496 ± 69 μg eq · hr/mL
same,Cmax,"[1]; Whole Blood, fasted",38.8 ± 9.5 µg/mL
same,t1/2,"[1]; Whole Blood, fasted",16.8 ± 1.9 h
same,Tmax,"[1]; Whole Blood, fasted",3.8 ± 2.9 h
same,AUClast,"[2]; IV 10 mg/kg, plasma, fed, n=3",215 ± 11 μg eq · hr/mL
same,Cmax (= C0),"[2]; IV 10 mg/kg, plasma, fed, n=3",81.5 ± 3.4 μg eq/mL
same,t1/2,"[2]; IV 10 mg/kg, plasma, fed, n=3",32.5 ± 1.2 h
same,F,[2]; Oral 25 mg/kg,46%
same,AUClast,[2]; [6],224 ± 30 μg eq · hr/mL
same,Cmax,[2]; [6],7.2 ± 1.4 μg eq/mL
same,Tmax,[2]; [6],7.3 ± 5.0 h
same,t1/2,[2]; [6],32.0 ± 3.1 h
same,F,[2]; Oral 50 mg/kg,49%
same,AUClast,[2]; [7],473 ± 53 μg eq · hr/mL
same,Cmax,[2]; [7],16.6 ± 1.4 μg eq/mL
same,Tmax,[2]; [7],4.7 ± 2.3 h
same,t1/2,[2]; [7],31.4 ± 1.8 h
same,F,[2]; Oral 100 mg/kg,42%
same,AUClast,[2]; [8],830 ± 29 μg eq · hr/mL
same,Cmax,[2]; [8],29.6 ± 2.7 μg eq/mL
same,Tmax,[2]; [8],6.0 ± 3.5 h
same,t1/2,[2]; [8],31.7 ± 3.5 h
same,site of highest radioactivity,[3]; 0.25 hr,stomach and small intestine
same,site of highest radioactivity,[3]; 1 hr,stomach and small intestine
same,site of highest radioactivity,[3]; 8 hrs,inner walls of the stomach
same,radioactivity distribution,[3]; 24 hrs,low radioactivity was observed in the liver
same,Radioactive Concentration in Plasma,[4]; 0.5 hr,0.096 ± 0.096 μg eq/mL
same,Radioactive Concentration in Plasma,[4]; 1 hr,0.689 ± 0.796 μg eq/mL
same,Radioactive Concentration in Plasma,[4]; 2 hr,2.09 ± 1.65 μg eq/mL
same,Radioactive Concentration in Plasma,[4]; 4 hr,6.51 ± 2.21 μg eq/mL
same,Radioactive Concentration in Plasma,[4]; 6 hr,10.2 ± 2.7 μg eq/mL
same,radioactive concentration in plasma as share of the administered dose,[4]; 8 h,approximately 28%
same,Radioactive Concentration in Plasma,"[4]; 8 hr, 50 mg/kg",17.5 μg eq/mL and 17.5 ± 4.9 μg eq/mL
same,"Cumulative Radioactive Concentration Relative to the Administered Dose, Cage-Cleaning Water",[5]; 0-24 hr,0.0 ± 0.0%
same,"Cumulative Radioactive Concentration Relative to the Administered Dose, Exhaled Air","[5]; 0-24 hr, 50 mg/kg",71.0 ± 3.2%
same,"Cumulative Radioactive Concentration Relative to the Administered Dose, Feces","[5]; 0-24 hr, 50 mg/kg",3.0 ± 0.5%
same,"Cumulative Radioactive Concentration Relative to the Administered Dose, Total","[5]; 0-24 hr, 50 mg/kg",75.9 ± 3.2%
same,"Cumulative Radioactive Concentration Relative to the Administered Dose, Urine","[5]; 0-24 hr, 50 mg/kg",1.9 ± 0.3%
same,"Cumulative Radioactive Concentration Relative to the Administered Dose, Cage-Cleaning Water",[5]; 0-48 hr,0.1 ± 0.1%
same,"Cumulative Radioactive Concentration Relative to the Administered Dose, Exhaled Air",[5]; 0-48 hr,75.0 ± 3.8%
same,"Cumulative Radioactive Concentration Relative to the Administered Dose, Feces",[5]; 0-48 hr,3.6 ± 0.7%
same,"Cumulative Radioactive Concentration Relative to the Administered Dose, Total",[5]; 0-48 hr,80.7 ± 3.8%
same,"Cumulative Radioactive Concentration Relative to the Administered Dose, Urine",[5]; 0-48 hr,2.1 ± 0.3%
same,"Cumulative Radioactive Concentration Relative to the Administered Dose, Cage-Cleaning Water",[5]; 0-72 hr,0.1 ± 0.0%
same,"Cumulative Radioactive Concentration Relative to the Administered Dose, Exhaled Air","[5]; 0-72 hr, 50 mg/kg",76.7 ± 3.9%
same,"Cumulative Radioactive Concentration Relative to the Administered Dose, Feces","[5]; 0-72 hr, 50 mg/kg",3.8 ± 0.7%
same,"Cumulative Radioactive Concentration Relative to the Administered Dose, Total","[5]; 0-72 hr, 50 mg/kg",82.8 ± 3.9%
same,"Cumulative Radioactive Concentration Relative to the Administered Dose, Urine","[5]; 0-72 hr, 50 mg/kg",2.2 ± 0.3%
same,"Cumulative Radioactive Concentration Relative to the Administered Dose, Cage-Cleaning Water",[5]; 0-96 hr,0.1 ± 0.0%
same,"Cumulative Radioactive Concentration Relative to the Administered Dose, Exhaled Air",[5]; 0-96 hr,77.7 ± 3.9%
same,"Cumulative Radioactive Concentration Relative to the Administered Dose, Feces",[5]; 0-96 hr,3.9 ± 0.7%
same,"Cumulative Radioactive Concentration Relative to the Administered Dose, Total",[5]; 0-96 hr,84.0 ± 3.8%
same,"Cumulative Radioactive Concentration Relative to the Administered Dose, Urine",[5]; 0-96 hr,2.3 ± 0.4%
same,"Cumulative Radioactive Concentration Relative to the Administered Dose, Cage-Cleaning Water",[5]; 0-120 hr,0.1 ± 0.0%
same,"Cumulative Radioactive Concentration Relative to the Administered Dose, Exhaled Air",[5]; 0-120 hr,78.4 ± 3.9%
same,"Cumulative Radioactive Concentration Relative to the Administered Dose, Feces",[5]; 0-120 hr,4.0 ± 0.7%
same,"Cumulative Radioactive Concentration Relative to the Administered Dose, Total",[5]; 0-120 hr,84.8 ± 3.8%
same,"Cumulative Radioactive Concentration Relative to the Administered Dose, Urine",[5]; 0-120 hr,2.3 ± 0.4%
same,"Cumulative Radioactive Concentration Relative to the Administered Dose, Cage-Cleaning Water",[5]; 0-144 hr,0.1 ± 0.0%
same,"Cumulative Radioactive Concentration Relative to the Administered Dose, Exhaled Air",[5]; 0-144 hr,78.9 ± 3.9%
same,"Cumulative Radioactive Concentration Relative to the Administered Dose, Feces",[5]; 0-144 hr,4.1 ± 0.7%
same,"Cumulative Radioactive Concentration Relative to the Administered Dose, Total",[5]; 0-144 hr,85.4 ± 3.8%
same,"Cumulative Radioactive Concentration Relative to the Administered Dose, Urine",[5]; 0-144 hr,2.3 ± 0.4%
same,"Cumulative Radioactive Concentration Relative to the Administered Dose, Cage-Cleaning Water",[5]; 0-168 hr,0.1 ± 0.0%
same,"Cumulative Radioactive Concentration Relative to the Administered Dose, Cadaver","[5]; 0-168 hr, 50 mg/kg",9.8 ± 1.0%
same,"Cumulative Radioactive Concentration Relative to the Administered Dose, Exhaled Air","[5]; 0-168 hr, 50 mg/kg",79.3 ± 3.9%
same,"Cumulative Radioactive Concentration Relative to the Administered Dose, Feces","[5]; 0-168 hr, 50 mg/kg",4.2 ± 0.7%
same,"Cumulative Radioactive Concentration Relative to the Administered Dose, Total","[5]; 0-168 hr, 50 mg/kg",95.7 ± 3.3%
same,"Cumulative Radioactive Concentration Relative to the Administered Dose, Urine","[5]; 0-168 hr, 50 mg/kg",2.3 ± 0.4%
